Entries after “also recorded” stand apart in the source; their conditions may differ.
Assays:
[1] = test system: PBX1 transcript; experiment: BG4 RNA immunoprecipitation (RIP) followed by qRT-PCR in A375 cells; type: cell-based, human
Procedure: (§1) FIGS. 2A-2G are features formed by dG1 and rG1 in vitro and in cells. In (FIG. 2A), Left: CD spectra of WT and Mut dG1, and Right: CD spectra of WT and Mut rG1. CD is circular dichroism. In (FIG. 2B), Left: gel mobility assay of WT and Mut dG1, and Right: gel mobility assay of WT and Mut rG1. In (FIG. 2C), under specified conditions, fluorescence-on assay of NMM in absence of presence of dG1 or rG1, and their G/A mutant. In (FIG. 2D), the occupancy of BG4 in the PBX1 promoter region is measured in A375 cells by BG4 chromatin immunoprecipitation (ChIP), followed by qRT-PCR. In (FIG. 2E), RNA immunoprecipitation (RIP) detection is performed to show the association between BG4 and the PBX1 transcript in A375 cells, followed by qRT-PCR. In (FIG. 2F), the occupancy of BG4 in the PBX1 promoter region is measured, by the BG4 chip, in A375 cells treated with or without PDS and TMPyP4, followed by qRT-PCR. […] SEM represents the standard error of mean. *P< 0.05, **P< 0.01***P< 0.001.
In this embodiment, several methods are further employed to verify the formation of dG1 and rG1. First, circular dichroism (CD) is used to examine the molar ellipticity of dG1 and rG1 sequences (33 nt) and mutants thereof, and the mutants are designed to eliminate G4 formation. […] N-methyl mesoporphyrin IX (NMN) is the well-known fluorescent G4-specific ligand that can be used for studies of G4 formation in vitro. Both dG1 and rG1 are found to enhance the fluorescence of N N (FIG. 2C). In addition, in this embodiment, chromatin immunoprecipitation (ChIP) and RNA immunoprecipitation (RIP) detection are performed in A375 cells using the well-known G4-specific antibody BG4. […] In summary, dG1 and rG1 can fold stable G4 structures in vitro and in cells. […] Therefore, the ability of these G4-specific ligands to interact with PBX1 G4s is investigated next.
Control:mG*mT*mC*mC*mA*mC*mA*mA*mA*mC*mA*mC*mA*mA*mC*mT*mC* mC*mT*mG*). […] This example also establishes short-term cultures of patient-derived melanoma xenograft (PDX)-derived tumor cells (PDCs) (FIG. 5D). […]

[2] = test system: rG1; experiment: Thermal stability of PBX1 rG1 with G4-specific ligands; type: binding
[3] = test system: B16-F10 cells; experiment: Cell proliferation assay (CCK-8), B16-F10; type: cell-based, mouse; settings: dose-dependent manner
Procedure: Cell proliferation assay: cell viability is determined by the cell counting kit-8 (CCK-8) according to the manufacturer's instructions (Abcam, UK). Cells (2000 cells per well) are incubated in the 96-well plate in triplicate and then added to each well at various time points at the final concentration of 10%, and incubation is continued at 37° C. After 60 minutes, the absorbance of the sample is measured at the wavelength of 450 nm. Data is analyzed using GraphPad Prism software.

[4] = test system: PBX1; experiment: PBX1 mRNA and protein levels by qRT-PCR and western blot in B16-F10 cells; type: cell-based, mouse; settings: for mRNA level of PBX1: qRT-PCR; for protein level of PBX1: western blot, normalized to GAPDH
Procedure: (§2) RNA extraction and quantitative RT-PCR detection: total RNA is extracted from cultured cells by using TRIzol (Invitrogen, USA), then is converted into cDNA by SuperScript III First-Strand Synthesis SuperMix (Invitrogen, USA). qRT-PCR detection is performed by using SYBR Green®Mix (Invitrogen, USA) in ABI 7500 (Invitrogen, USA). A relative expression quantity of RNA is calculated by using a comparative CT method.
(§3) Immunoblotting: for protein analysis of a whole-cell lysate, cells are lysed with RIPA (CWBIO, Beijing, China) buffer solution. For tumors, liquid nitrogen is first used to pulverize tissues. Then, the lysate is generated on ice with the RIPA (CWBIO, Beijing, China) buffer solution for 20 minutes, and then centrifuged at 4° C., 13000 rpm for 15 minutes. Protein-containing supernatant is transferred to the fresh microcentrifuge tube, and stored at −20° C. (short-term storage) for subsequent use. The protein is quantified by using the BIO-RAD DC protein assay. The total proteins are electrophoresed on SDS-polyacrylamide gels. Then, the proteins are transferred to polyvinylidene difluoride (PVDF) membrane. After incubation with the primary antibody overnight on the shaker at 4° C., the membrane is washed 6 times (5 minutes each time) with TBS-T (Invitrogen, USA). Then, blots are incubated with horseradish peroxidase (IRP)-conjugated secondary antibodies for 60 minutes at RT on the plate shaker. The membrane is cleaned by TBS-T (6×5 minutes). Detection on immunoreactive bands is performed by using SuperSignalmWest Pico chemiluminescence substrate kit (Thermo Fisher Scientific, USA) and Western blotting detection system (BioRad, USA). GAPDH is used as the loading control for western blotting. The intensity levels of the bands are normalized to GAPDH.

[5] = test system: dG1; experiment: Thermal stability of PBX1 dG1 with G4-specific ligands; type: binding
[6] = test system: PBX1 promoter region; experiment: BG4 chromatin immunoprecipitation (ChIP) followed by qRT-PCR in A375 cells; type: cell-based, human
Procedure: as §1
In this embodiment, several methods are further employed to verify the formation of dG1 and rG1. First, circular dichroism (CD) is used to examine the molar ellipticity of dG1 and rG1 sequences (33 nt) and mutants thereof, and the mutants are designed to eliminate G4 formation. […] Both dG1 and rG1 are found to enhance the fluorescence of N N (FIG. 2C). […]

[7] = test system: A375 cells; experiment: In vitro cell invasion experiment (Transwell), A375; type: cell-based, human; settings: Transwell with Matrigel, 24 hours
Procedure: In vitro cell invasion experiment: in the Transwell invasion experiment, Matrigel is used as an invasive supraluminal membrane barrier (Corning, USA). The lower transwell chamber is filled with 2.5% serum containing DMEM medium. The cells are suspended at an upper chamber. After incubation for 24 hours, the filter is removed, and cells on the membrane are fixed by using methanol. Cells stained with 0.5% crystal violet infiltrate the surrounding matrix. The dye is washed with water and the cells are examined under the microscope (Leica, Germany). Six micrographs are taken for each person.

[8] = test system: A375 cells; experiment: Cell scratch assay (migration), A375; type: cell-based, human; settings: PDS (2 μM), TMPyP4 (5 μM), 24 h
Procedure: Cell scratch assay: the cells are seeded in 12-well plate and grown for 24 hours to 80% confluency. The bare region is created by the tip across the diameter of the dish. After being treated with PDS (2 μM) and TMPyP4 (5 μM) for 24 h, the cells are washed with PBS and photographed under the microscope (Leica, Germany) to evaluate cell migration. Six micrographs are taken for each person.

[9] = test system: PBX1; experiment: PBX1 mRNA and protein levels by qRT-PCR and western blot in A375 cells; type: cell-based, human; settings: for mRNA level of PBX1: qRT-PCR; for protein level of PBX1: western blot, normalized to GAPDH
Procedure: as §2, §3

Row | SMILES | PBX1 transcript pulled down by BG4 [1] | thermal stability of rG1 [2] | cell viability (activity) measured by CCK8 [3] | mRNA level of PBX1 [4] | protein level of PBX1 [4] | thermal stability of dG1 [5] | pull-down of the PBX1 promoter by BG4 [6] | invasion [7] | migration [8] | mRNA level of PBX1 [9] | protein level of PBX1 [9]
1 | NCCOc1cc(C(=O)Nc2cc(OCCN)c3ccccc3n2)nc(C(=O)Nc2cc(OCCN)c3ccccc3n2)c1 [PDS, Pyridostatin] | enhance | remarkably enhance | reduce; also recorded: remarkably reduces | inhibit; also recorded: remarkably reduces | inhibit; also recorded: remarkably reduces | remarkably enhance | enhance | inhibit | inhibit | inhibit; also recorded: remarkably reduces | inhibit; also recorded: remarkably reduces
2 | C[n+]1ccc(-c2c3nc(c(-c4cc[n+](C)cc4)c4ccc([nH]4)c(-c4cc[n+](C)cc4)c4ccc([nH]4)c(-c4cc[n+](C)cc4)c4nc2C=C4)C=C3)cc1 [TMPyP4] | enhance | remarkably enhance | reduce; also recorded: remarkably reduces | inhibit; also recorded: remarkably reduces | inhibit; also recorded: remarkably reduces | remarkably enhance | enhance | inhibit | inhibit | inhibit; also recorded: remarkably reduces | inhibit; also recorded: remarkably reduces
